# Experiments:
# [1] = system: dysplastic nodule or early HCC; assay: Subject with HCV-related liver cirrhosis and dysplastic nodule or early HCC given MK4 and an ACE-I; format: in vivo, human
# Text: Treatment with MK4 and an ACE-I normalizes AFP and AFP-L3 tumor markers and the hepatic nodule disappears. A subject with hepatitis C virus (HCV)-related liver cirrhosis is diagnosed with what was termed a “dysplastic nodule or early HCC.” The diagnosis is based on enhanced computed tomography (CE-CT) study and elevations of the tumor markers alpha-fetoprotein (AFP) and lectin-reactive alpha-fetal protein (AFP-L3).
# [2] = system: MMP-3 promoter; assay: MMP promoter/luciferase reporter assay in transfected HCC cells; format: cell-based; details: HepG2 cells, luciferase reporter
# Text: To investigate the mechanism of suppression of MMP-1, -3 and -7 expression by MK4, HCC cells will be transiently transfected with MMP-1, -3 and -7 promoter/luciferase reporter plasmids and then treated with MK4.
# [3] = system: hepatocellular carcinoma; assay: Randomized study of oral MK4 versus no MK4 in patients with hepatocellular carcinoma; format: in vivo, human
# Method: Patients with hepatocellular carcinoma are randomized to receive oral MK4 (90 mg/day) or no MK4. All patients receive conventional therapy with percutaneous tumor ablation and/or transcatheter arterial embolization. The rate of portal vein invasion at 12 months of follow-up will be reduced in MK4 recipients as compared with controls.
# [4] = system: MMP-3; assay: Suppression of TPA-induced MMP expression; format: cell-based
# Text: (§1) Since MK4 inhibits MMP-1, -3 and -7 mRNA expression, the ability of MK4 to suppress TPA-induced MMP expression will be investigated. […] MK4 also suppresses the MMP-1 and -3 protein expression induced by TPA.
# [5] = system: MMP-1; assay: Suppression of TPA-induced MMP expression; format: cell-based
# Text: as §1
# [6] = system: MMP-7; assay: Suppression of TPA-induced MMP expression; format: cell-based
# Text: as §1
# [7] = system: hepatocellular carcinoma; assay: Subject with hepatocellular carcinoma given oral MK4 (induction then maintenance); format: in vivo, human
# Method: A subject suffering from hepatocellular carcinoma is administered oral MK4 (90 mg daily once a day). After the administration of MK4 for six weeks, tumor sizes will decrease and the diameter of the main tumor is smaller. […] This case report provides compelling evidence that MK4 may be useful in the treatment of HCC.
# [8] = after one-year combined treatment, MK-4 45 mg daily for additional 48 months, ACE-I halted
# [9] = oral MK4 90 mg daily with ACE-I (e.g., perindopril; 4 mg/day)
# [10] = after 12 months at 90 mg/day, additional twenty-two months at 45 mg daily once a day
# [11] = after six weeks at 90 mg, additional twenty-two months at 45 mg daily once a day
compound,measurement,setting,value
"CC(C)=CCC/C(C)=C/CC/C(C)=C/CC/C(C)=C/CC1=C(C)C(=O)c2ccccc2C1=O [MK4, menatetrenone]",serum level of AFP,[1]; [8],remain in the normal range
same,serum level of AFP-L3,[1]; [8],remain in the normal range
same,serum level of AFP,[1]; [9],gradually decrease
same,serum level of AFP-L3,[1]; [9],gradually decrease
same,MMP-3 promoter activity,[2],decrease MMP-3 promoter activity weakly
same,rate of portal vein invasion,"[3]; 12 months of follow-up, oral MK4 90 mg/day plus conventional therapy, versus controls",reduced
same,recurrence,[3]; [10],no signs of recurrence are observed
same,tumor markers,[3]; [10],remain within the normal limits
same,MMP-3 mRNA expression induced by TPA,[4],dose-dependently inhibits
same,MMP-3 promoter activity induced by TPA,[4],dose-dependently suppresses
same,MMP-3 protein expression induced by TPA,[4],suppresses
same,MMP-1 mRNA expression induced by TPA,[5],dose-dependently inhibits
same,MMP-1 promoter activity induced by TPA,[5],dose-dependently suppresses
same,MMP-1 protein expression induced by TPA,[5],suppresses
same,MMP-7 mRNA expression induced by TPA,[6],dose-dependently inhibits
same,MMP-7 promoter activity induced by TPA,[6],dose-dependently suppresses
same,recurrence,[7]; [11],no signs of recurrence are observed
same,tumor markers,[7]; [11],remain within the normal limits
same,diameter of the main tumor,[7]; oral 90 mg daily once a day for six weeks,smaller

# Reference: patent US20120309744A1, “DOSING REGIMENS AND METHODS FOR TREATING OR PREVENTING HEPATOCELLULAR CARCINOMA” (NBI Pharmaceuticals, Inc., priority 2011, published 2012)
